US20250026778A1 (TIUMBIO CO., LTD., priority 2021, published 2025)
Read-outs that look alike come from different tables or passages of the source.

Target: T1, his-galectin-3 (Homo sapiens, UniProt P17931)
T1 construct: purchased Abcam
Experiment: TR-FRET assay (in vitro galectin-3 binding inhibitory activity test)
Conditions: compound at 20 μM, 60 nM his-galectin-3, 15 nM biotin-ASF
In short: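 Compound is premixed with his-galectin-3 (60 nM final), then biotin-ASF (15 nM), Tb anti-His antibody (2 nM) and streptavidin-d2 (20 nM) are added. After at least 3.5 hours at RT in HEPES/NaCl buffer with Tween 20 and BSA, TR-FRET is read at 615/665 nm. DMSO serves as the uninhibited control, ASF omission as background.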

[1] = Table 2, read-out: % Inhibitory activity (at 20 μM)
[2] = Table 1, read-out: % Inhibitory activity (at 20 μM)

T1 sequence (P17931 whole entry): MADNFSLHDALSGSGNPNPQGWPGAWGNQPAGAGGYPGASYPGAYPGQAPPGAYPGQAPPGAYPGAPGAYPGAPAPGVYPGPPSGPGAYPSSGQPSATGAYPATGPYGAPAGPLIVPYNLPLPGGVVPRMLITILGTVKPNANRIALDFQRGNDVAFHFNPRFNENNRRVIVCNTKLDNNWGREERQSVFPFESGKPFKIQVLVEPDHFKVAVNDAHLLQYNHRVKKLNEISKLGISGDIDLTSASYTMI

SMILES	inhibition at 20 µM [2]	other results
O=C(N[C@@H]1CCO[C@]12O[C@H](CO)[C@H](O)[C@H](n1cc(-c3cc(F)c(F)c(F)c3)nn1)[C@H]2O)c1ccc2c(Br)cccc2c1 [Compound A192, 5-bromo-N-((4R,5S,7R,8R,9S,10R)-8,10-dihydroxy-7-(hydroxymethyl)-9-(4-(3,4,5-trifluorophenyl)-1H-1,2,3-triazol-1-yl)-1,6-dioxaspiro[4.5]decan-4-yl)-2-naphthamide]	–	inhibition at 20 µM [1]: 25 to 50%
OC[C@H]1O[C@@]2(CCCO2)[C@H](OCc2cncc(F)c2)[C@@H](n2cc(-c3cc(F)c(F)c(F)c3)nn2)[C@H]1O [Compound A84, (5S,7R,8R,9S,10R)-10-((5-fluoropyridin-3-yl)methoxy)-7-(hydroxymethyl)-9-(4-(3,4,5-trifluorophenyl)-1H-1,2,3-triazol-1-yl)-1,6-dioxaspiro[4.5]decan-8-ol]	–	inhibition at 20 µM (read-out: % Inhibitory activity (at 20 μM), Table 1): < 25%
OC[C@H]1O[C@@]2(CCCNC2)[C@H](O)[C@@H](n2cc(-c3cc(F)c(F)c(F)c3)nn2)[C@H]1O [Compound A110, (2R,3R,4S,5R,6R)-2-(hydroxymethyl)-4-(4-(3,4,5-trifluorophenyl)-1H-1,2,3-triazol-1-yl)-1-oxa-8-azaspiro[5.5]undecane-3,5-diol]	< 25%	–
O=C(c1ccncc1)N1CCC[C@]2(C1)O[C@H](CO)[C@H](O)[C@H](n1cc(-c3cc(F)c(F)c(F)c3)nn1)[C@H]2O [Compound A189, ((2R,3R,4S,5R,6R)-3,5-dihydroxy-2-(hydroxymethyl)-4-(4-(3,4,5-trifluorophenyl)-1H-1,2,3-triazol-1-yl)-1-oxa-8-azaspiro[5.5]undecan-8-yl)(pyridin-4-yl)methanone]	–	inhibition at 20 µM [1]: < 25%
O=C(N[C@@H]1CCO[C@]12O[C@H](CO)[C@H](O)[C@H](n1cc(-c3cc(F)c(F)c(F)c3)nn1)[C@H]2O)c1sc2ccccc2c1Br [Compound A181, 3-bromo-N-((4R,5S,7R,8R,9S,10R)-8,10-dihydroxy-7-(hydroxymethyl)-9-(4-(3,4,5-trifluorophenyl)-1H-1,2,3-triazol-1-yl)-1,6-dioxaspiro[4.5]decan-4-yl)benzo[b]thiophene-2-carboxamide]	–	inhibition at 20 µM [1]: > 75%
O=C(N[C@@H]1CCO[C@]12O[C@H](CO)[C@H](O)[C@H](n1cc(-c3cc(F)c(F)c(F)c3)nn1)[C@H]2O)c1cccc2sccc12 [Compound A198, N-((4R,5S,7R,8R,9S,10R)-8,10-dihydroxy-7-(hydroxymethyl)-9-(4-(3,4,5-trifluorophenyl)-1H-1,2,3-triazol-1-yl)-1,6-dioxaspiro[4.5]decan-4-yl)benzo[b]thiophene-4-carboxamide]	–	inhibition at 20 µM [1]: > 75%
O=C(c1ccccn1)N1CCC[C@]2(C1)O[C@H](CO)[C@H](O)[C@H](n1cc(-c3cc(F)c(F)c(F)c3)nn1)[C@H]2O [Compound A188, ((2R,3R,4S,5R,6R)-3,5-dihydroxy-2-(hydroxymethyl)-4-(4-(3,4,5-trifluorophenyl)-1H-1,2,3-triazol-1-yl)-1-oxa-8-azaspiro[5.5]undecan-8-yl)(pyridin-2-yl)methanone]	–	inhibition at 20 µM [1]: < 25%
OC[C@H]1O[C@@]2(CCCCO2)[C@H](OCc2nn[nH]n2)[C@@H](n2cc(-c3cc(F)c(F)c(F)c3)nn2)[C@H]1O [Compound A45, (2R,3R,4S,5R,6S)-5-((2H-tetrazol-5-yl)methoxy)-2-(hydroxymethyl)-4-(4-(3,4,5-trifluorophenyl)-1H-1,2,3-triazol-1-yl)-1,7-dioxaspiro[5.5]undecan-3-ol]	50 to 75%	–
OC[C@H]1O[C@@]2(CCCN(c3ccncn3)C2)[C@H](O)[C@@H](n2cc(-c3cc(F)c(F)c(F)c3)nn2)[C@H]1O [Compound A226, (2R,3R,4S,5R,6R)-2-(hydroxymethyl)-8-(pyrimidin-4-yl)-4-(4-(3,4,5-trifluorophenyl)-1H-1,2,3-triazol-1-yl)-1-oxa-8-azaspiro[5.5]undecane-3,5-diol]	–	inhibition at 20 µM (read-out: % Inhibitory activity (at 20 μM), Table 2): < 25%
O=C(O[C@@H]1[C@@H](n2cc(-c3cc(F)c(F)c(F)c3)nn2)[C@@H](O)[C@@H](CO)O[C@@]12CCCCO2)c1cccc(C(F)(F)F)c1 [Compound A52, (2R,3R,4S,5R,6S)-3-hydroxy-2-(hydroxymethyl)-4-(4-(3,4,5-trifluorophenyl)-1H-1,2,3-triazol-1-yl)-1,7-dioxaspiro[5.5]undecan-5-yl 3-(trifluoromethyl)benzoate]	< 25%	–
O=P(O)(O)O[C@@H]1[C@@H](n2cc(-c3cc(F)c(F)c(F)c3)nn2)[C@@H](O)[C@@H](CO)O[C@@]12CCCCO2 [Compound A76, (2R,3R,4S,5R,6S)-3-hydroxy-2-(hydroxymethyl)-4-(4-(3,4,5-trifluorophenyl)-1H-1,2,3-triazol-1-yl)-1,7-dioxaspiro[5.5]undecan-5-yl dihydrogen phosphate]	50 to 75%	–
OC[C@H]1O[C@@]2(CCCO2)[C@H](OCc2ccc3c(c2)OCO3)[C@@H](n2cc(-c3cc(F)c(F)c(F)c3)nn2)[C@H]1O [Compound A35, (5S,7R,8R,9S,10R)-10-(benzo[d][1,3]dioxol-5-ylmethoxy)-7-(hydroxymethyl)-9-(4-(3,4,5-trifluorophenyl)-1H-1,2,3-triazol-1-yl)-1,6-dioxaspiro[4.5]decan-8-ol]	25 to 50%	–

Now from value to compound, other results behind:

inhibition at 20 µM [2]	SMILES	other results
< 25%	O=C(N[C@@H]1CCO[C@]12O[C@H](CO)[C@H](O)[C@H](n1cc(-c3cc(F)c(F)c(F)c3)nn1)[C@H]2O)c1cccc(F)c1 [Compound A60, N-((4R,5S,7R,8R,9S,10R)-8,10-dihydroxy-7-(hydroxymethyl)-9-(4-(3,4,5-trifluorophenyl)-1H-1,2,3-triazol-1-yl)-1,6-dioxaspiro[4.5]decan-4-yl)-3-fluorobenzamide]	–
> 75%	O=C(N[C@@H]1CCO[C@]12O[C@H](CO)[C@H](O)[C@H](n1cc(-c3cc(F)c(F)c(F)c3)nn1)[C@H]2O)c1cccc2ccccc12 [Compound A133, N-((4R,5S,7R,8R,9S,10R)-8,10-dihydroxy-7-(hydroxymethyl)-9-(4-(3,4,5-trifluorophenyl)-1H-1,2,3-triazol-1-yl)-1,6-dioxaspiro[4.5]decan-4-yl)-1-naphthamide]	–
50 to 75%	O=C(N[C@@H]1CCO[C@]12O[C@H](CO)[C@H](O)[C@H](n1cc(-c3cc(F)c(F)c(F)c3)nn1)[C@H]2O)c1cc2ccccc2o1 [Compound A123, N-((4R,5S,7R,8R,9S,10R)-8,10-dihydroxy-7-(hydroxymethyl)-9-(4-(3,4,5-trifluorophenyl)-1H-1,2,3-triazol-1-yl)-1,6-dioxaspiro[4.5]decan-4-yl)benzofuran-2-carboxamide]	–
50 to 75%	O=C(N[C@@H]1CCO[C@]12O[C@H](CO)[C@H](O)[C@H](n1cc(-c3cc(F)c(F)c(F)c3)nn1)[C@H]2O)c1cccc(Oc2ccccc2)c1 [Compound A130, N-((4R,5S,7R,8R,9S,10R)-8,10-dihydroxy-7-(hydroxymethyl)-9-(4-(3,4,5-trifluorophenyl)-1H-1,2,3-triazol-1-yl)-1,6-dioxaspiro[4.5]decan-4-yl)-3-phenoxybenzamide]	inhibition at 20 µM (Table 3, found values, read-out: % Inhibitory activity (at 20 μM)): 56.6%
50 to 75%	COc1cccc(CC(=O)N[C@@H]2CCO[C@]23O[C@H](CO)[C@H](O)[C@H](n2cc(-c4cc(F)c(F)c(F)c4)nn2)[C@H]3O)c1 [Compound A116, N-((4R,5S,7R,8R,9S,10R)-8,10-dihydroxy-7-(hydroxymethyl)-9-(4-(3,4,5-trifluorophenyl)-1H-1,2,3-triazol-1-yl)-1,6-dioxaspiro[4.5]decan-4-yl)-2-(3-methoxyphenyl)acetamide]	–
